One series concerns the target human VMAT2 (Homo sapiens (Human), UniProt Q05940). Put plainly: VMAT2 radioligand binding, 3H-dihydrotetrabenazine competition on human platelet homogenate. The procedure:
Examples of techniques for determining the capability of a compound to inhibit VMAT2 are provided below. The procedure was adapted from that described previously (see, e.g., Near, (1986), Mol. Pharmacol. 30: 252-57; Teng, et al., J. Neurochem. 71, 258-65, 1998). Homogenates from human platelets were prepared by homogenization and then washed by centrifugation as described previously (see, e.g., Hoare et al., (2003) Peptides 24:1881-97).
The human VMAT2 Ki values for the compounds listed in Table 15A and Table 15B were determined using the following procedures. Compound dilution series in DMSO were generated from either powder stocks by hand, or from DMSO stocks using serial dilution on a Vantage (Hamilton), or direct dilution using an Echo 655 (Beckman). In a total volume of 0.145 to 0.150 mL in low-binding 96-well plates (Corning #3605), twelve concentrations of test compound were competed against 10 nM ^3H-dihydrotetrabenezine (American Radiolabeled Chemicals) on human platelet homogenate (30 μg membrane protein per well) in VMAT2 binding buffer (Dulbecco's phosphate buffered saline, 1 mM EDTA, pH 7.4). Following incubation at 25° C. for 90 minutes, bound radioligand was collected by rapid filtration onto either GF/B or GF/C glass fiber filters, pretreated with 0.100 polyethylenimine, using either a Unifilter-96 Harvester (PerkinElmer) or Microlab Star (Hamilton). Following harvesting the filter plates were washed with 0.8 mL VMAT2 binding buffer, and bound radioligand was quantified by scintillation counting using a Topcount NXT or Microplate Counter Microbeta (PerkinElmer).

A short description of series [1]: Stability of compounds in human liver microsomes. The following applies: for CLint scaled at 0.5 μM / half-life at 0.5 μM: both sexes, pH 7.4; for CLint scaled at 0.5 μM: liver microsomes, calculated from HLM half-life, read-out: HLM Scaled Intrinsic Clearance; for CLint scaled at 0.5 μM / Predicted Max. Bioavailability (% F) / HLM Predicted Systemic Clearance: human; for half-life at 0.5 μM: 0.5 μM compound, 0.5 mg/mL human liver microsomes, 37° C., maxed at 420 minutes, read-out: HLM Elimination half-life (t1/2, min); for Predicted Max. Bioavailability (% F): predicted from HLM data; for HLM Predicted Systemic Clearance: scaled from HLM half-life (Obach method). It is filed as in vitro ADME. The procedure:
A test compound (0.5 μM) was incubated with pooled mixed gender liver microsomes from humans (0.5 mg/mL total protein) at 37° C. in the presence of an NADPH-generating system containing 50 mM, pH 7.4 potassium phosphate buffer, 3 mM magnesium chloride, 1 mM EDTA, 1 mM NADP, 5 mM glusose-6-phosphate, and 1 Unit/mL glucose-6-phosphate dehydrogenase. All concentrations were relative to the final incubation volume of 125 μL. Incubations were conducted at 37° C. for 0, 5, 10, 20, 40, and 60 minutes in a water bath and terminated by rapid mixing with 150 μL of ice-cold acetonitrile containing internal standard. Precipitated proteins were removed by centrifugation prior to LC-MS/MS analysis. Aliquots of the resulting supernatant fractions were analyzed by LC-MS/MS monitoring for depletion of parent compound. The resultant peak area ratio versus time data was fitted to a non-linear regression using XLfit Scientific Curve Fitting Software (IDBS Ltd., Surrey, UK) and the elimination half-life (t1/2, min) was calculated from the slope. […] Additional values calculated included predicted extraction ratio and predicted maximum bioavailability.

[2] abbreviates: 10 nM 3H-dihydrotetrabenazine, human platelet homogenate, 25° C., 90 minutes, read-out: VMAT2 Ki.

Data on 17 molecules can be found in patent US11718618B2, “Substituted pyrido[2,1-a]isoquinolines as VMAT2 inhibitors” (priority 2021, dated 2023).

Structures are written as SMILES. Read-outs that look alike come from different tables or passages of the source.

What is called Ki is a dissociation constant, usually derived from enzyme kinetics or from competition with a known ligand.

Chain of human VMAT2 (Q05940 whole entry): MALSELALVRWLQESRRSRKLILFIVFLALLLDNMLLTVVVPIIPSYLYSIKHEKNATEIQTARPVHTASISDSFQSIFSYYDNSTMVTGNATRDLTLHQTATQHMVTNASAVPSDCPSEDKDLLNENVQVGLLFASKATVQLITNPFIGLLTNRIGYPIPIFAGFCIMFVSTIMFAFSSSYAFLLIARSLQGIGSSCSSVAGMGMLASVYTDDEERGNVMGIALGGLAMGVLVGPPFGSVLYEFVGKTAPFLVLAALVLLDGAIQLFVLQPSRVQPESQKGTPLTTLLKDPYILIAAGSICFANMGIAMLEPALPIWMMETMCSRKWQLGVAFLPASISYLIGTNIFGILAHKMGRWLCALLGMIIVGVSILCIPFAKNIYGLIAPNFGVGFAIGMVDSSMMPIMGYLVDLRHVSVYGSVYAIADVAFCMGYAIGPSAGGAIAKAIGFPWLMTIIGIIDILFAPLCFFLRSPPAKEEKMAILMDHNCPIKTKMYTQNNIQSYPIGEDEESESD

On to `[2H]C([2H])([2H])C([2H])([2H])Oc1cc2c(cc1OC)[C@H]1C[C@@H](O)[C@H](CC(C)(C)C)CN1CC2` [Compound 4-40, (2R,3R,11bR)-3-(2,2-dimethylpropyl)-9-(ethoxy-d5)-10-methoxy-1H,2H,3H,4H,6H,7H,11bH-pyrido[2,1-a]isoquinolin-2-ol], for which the Ki at human VMAT2 was 0.0014 µM. Also, in series [1], the CLint scaled at 0.5 μM is 23.9 mL/min/kg, the half-life at 0.5 μM came out at 52 min, the “Predicted Max. Bioavailability (% F)” value is given as 46 % F and the “HLM Predicted Systemic Clearance” value was 10.88 mL/min/kg.
Regarding `COc1cc2c(cc1OCc1ncc(C)o1)CCN1C[C@@H](CC(C)(C)C)[C@H](O)C[C@H]21` [Compound 4-36, (2R,3R,11bR)-3-(2,2-dimethylpropyl)-10-methoxy-9-[(5-methyl-1,3-oxazol-2-yl)methoxy]-1H,2H,3H,4H,6H,7H,11bH-pyrido[2,1-a]isoquinolin-2-ol], on human VMAT2 (setting [2]), the Ki came to 0.051 µM. For the same molecule, in series [1], the CLint scaled at 0.5 μM was 13.4 mL/min/kg, the half-life at 0.5 μM is 93 min, the “Predicted Max. Bioavailability (% F)” value was 60 % F and the “HLM Predicted Systemic Clearance” value was 8.02 mL/min/kg.
Regarding `COc1cc2c(cc1OCC(O)COCC(F)(F)F)CCN1C[C@@H](CC(C)(C)C)[C@H](O)C[C@H]21` (stereo partly shown) [Compound 4-79], at human VMAT2 (setting [2]), the Ki amounted to 0.099 µM. Moreover, in series [1], the CLint scaled at 0.5 μM was 5.88 mL/min/kg, the half-life at 0.5 μM is 212 min, the “Predicted Max. Bioavailability (% F)” value is 77 % F and the “HLM Predicted Systemic Clearance” value was 4.54 mL/min/kg.
For `COc1cc2c(cc1O[C@@H]1CCOC1)CCN1C[C@@H](CC(C)(C)C)[C@H](O)C[C@H]21` [Compound 4-53, (2R,3R1bR)-3-(2,2-dimethylpropyl)-10-methoxy-9-[(3R)-oxolan-3-yloxy]-1H,2H,3H,4H,6H,7H,11bH-pyrido[2,1-a]isoquinolin-2-ol], on human VMAT2 (setting [2]), the Ki was determined as 0.012 µM. Also, in series [1], the CLint scaled at 0.5 μM was 8.57 mL/min/kg, the half-life at 0.5 μM turned out to be 146 min, the “Predicted Max. Bioavailability (% F)” value is listed as 70 % F and the “HLM Predicted Systemic Clearance” value is 6 mL/min/kg.
As for `COc1cc2c(cc1OC1CCC1)CCN1C[C@@H](CC(C)(C)C)[C@H](O)C[C@H]21` [Compound 4-32, (2R,3R,11bR)-9-cyclobutoxy-3-(2,2-dimethylpropyl)-10-methoxy-1H,2H,3H,4H,6H,7H,11bH-pyrido[2,1-a]isoquinolin-2-ol], at human VMAT2 (setting [2]), the inhibition constant Ki worked out at 0.00059 µM. In series [1], the CLint scaled at 0.5 μM is 66.5 mL/min/kg, the half-life at 0.5 μM is 19 min, the “Predicted Max. Bioavailability (% F)” value is 23 % F and the “HLM Predicted Systemic Clearance” value is 15.38 mL/min/kg.
As for `COc1cc2c(cc1OCC1(F)CCC1)CCN1C[C@@H](CC(C)(C)C)[C@H](O)C[C@H]21` [Compound 4-61, (2R,3R,11bR)-3-(2,2-dimethylpropyl)-9-[(1-fluorocyclobutyl)methoxy]-10-methoxy-1H,2H,3H,4H,6H,7H,11bH-pyrido[2,1-a]isoquinolin-2-ol], the inhibition constant Ki on human VMAT2 (setting [2]) was 0.0035 µM. Besides, in series [1], the CLint scaled at 0.5 μM was 42 mL/min/kg, the half-life at 0.5 μM was determined as 30 min, the “Predicted Max. Bioavailability (% F)” value is listed as 32 % F and the “HLM Predicted Systemic Clearance” value was 13.55 mL/min/kg.
Consider `COc1cc2c(cc1OCC13CC(C(F)(F)F)(C1)C3)CCN1C[C@@H](CC(C)(C)C)[C@H](O)C[C@H]21` [Compound 4-67, (2R,3R,11bR)-3-(2,2-dimethylpropyl)-10-methoxy-9-{[3-(trifluoromethyl)bi-cyclo[1.1.1]pentan-1-yl]methoxy}-1H,2H,3H,4H,6H,7H,11bH-pyrido[2,1-a]isoquinolin-2-ol], for which the Ki on human VMAT2 (setting [2]) was determined as 0.014 µM. Besides, in series [1], the CLint scaled at 0.5 μM is not above 2.97 mL/min/kg, the half-life at 0.5 μM was not below 420 min, the “Predicted Max. Bioavailability (% F)” value is reported as not below 87 % F and the “HLM Predicted Systemic Clearance” value was not above 2.59 mL/min/kg.
On to `COc1cc2c(cc1OCC(F)(F)F)CCN1C[C@@H](CC(C)(C)C)[C@@H](O)C[C@H]21` [Compound 4-16, (2S,3R,11bR)-3-(2,2-dimethylpropyl)-10-methoxy-9-(2,2,2-trifluoroethoxy)-1H,2H,3H,4H,6H,7H,11bH-pyrido[2,1-a]isoquinolin-2-ol], for which the Ki on human VMAT2 (setting [2]) is 0.022 µM. Further, in series [1], the CLint scaled at 0.5 μM was not above 2.97 mL/min/kg, the half-life at 0.5 μM is not below 420 min, the “Predicted Max. Bioavailability (% F)” value is not below 87 % F and the “HLM Predicted Systemic Clearance” value was not above 2.59 mL/min/kg.
On the same counts, the results for `COc1cc2c(cc1OCCC(F)(F)F)CCN1C[C@H](CC(C)(C)C)[C@@H](O)C[C@@H]21` [Compound 4-9, (2S,3S,11bS)-3-(2,2-dimethylpropyl)-10-methoxy-9-(3,3,3-trifluoropropoxy)-1H,2H,3H,4H,6H,7H,11bH-pyrido[2,1-a]isoquinolin-2-ol] are 0.277 µM, not above 2.97 mL/min/kg, not below 420 min, not below 87 % F and not above 2.59 mL/min/kg.
With `COc1cc2c(cc1OCCc1ccc(C(F)(F)F)cc1)CCN1C[C@@H](CC(C)(C)C)[C@H](O)C[C@H]21` [Compound 4-74, (2R,3R,11bR)-3-(2,2-dimethylpropyl)-10-methoxy-9-{2-[4-(trifluoromethyl)phenyl]ethoxy}-1H,2H,3H,4H,6H,7H,11bH-pyrido[2,1-a]isoquinolin-2-ol], the Ki on human VMAT2 (setting [2]) came to 0.065 µM. In series [1], the CLint scaled at 0.5 μM is 34.6 mL/min/kg, the half-life at 0.5 μM came to 36 min, the “Predicted Max. Bioavailability (% F)” value is 37 % F and the “HLM Predicted Systemic Clearance” value is 12.68 mL/min/kg.
As to `COc1cc2c(cc1OCC1CCN(C#N)CC1)CCN1C[C@@H](CC(C)(C)C)[C@H](O)C[C@H]21` [Compound 4-73], the Ki on human VMAT2 (setting [2]) amounted to 0.051 µM. Also, in series [1], the CLint scaled at 0.5 μM is 10.5 mL/min/kg, the half-life at 0.5 μM was found to be 119 min, the “Predicted Max. Bioavailability (% F)” value is listed as 66 % F and the “HLM Predicted Systemic Clearance” value is 6.88 mL/min/kg.
Turning to `COc1cc2c(cc1OCCC(F)(F)F)CCN1C[C@H](CC(C)(C)C)[C@H](O)C[C@@H]21` [Compound 4-5, (2R,3S,11bS)-3-(2,2-dimethylpropyl)-10-methoxy-9-(3,3,3-trifluoropropoxy)-1H,2H,3H,4H,6H,7H,11bH-pyrido[2,1-a]isoquinolin-2-ol], the Ki at human VMAT2 (setting [2]) was 0.135 µM.
Regarding `COc1cc2c(cc1OCc1ccc(C#N)cn1)CCN1C[C@@H](CC(C)(C)C)[C@H](O)C[C@H]21` [Compound 4-82, 6-({[(2R,3R,11bR)-3-(2,2-dimethylpropyl)-2-hydroxy-10-methoxy-1H,2H,3H,4H,6H,7H,11bH-pyrido[2,1-a]isoquinolin-9-yl]oxy}methyl)pyridine-3-carbonitrile], the Ki at human VMAT2 (setting [2]) turned out to be 0.198 µM.
For `COc1cc2c(cc1OCC(F)(F)F)CCN1C[C@H](CC(C)(C)C)[C@H](O)C[C@@H]21` [Compound 4-4, (2R,3S,11bS)-3-(2,2-dimethylpropyl)-10-methoxy-9-(2,2,2-trifluoroethoxy)-1H,2H,3H,4H,6H,7H,11bH-pyrido[2,1-a]isoquinolin-2-ol], the Ki on human VMAT2 (setting [2]) was determined as 0.17 µM.
Regarding `COc1cc2c(cc1OCc1ncno1)CCN1C[C@@H](CC(C)(C)C)[C@H](O)C[C@H]21` [Compound 4-95, (2R,3R,11bR)-3-(2,2-dimethylpropyl)-10-methoxy-9-(1,2,4-oxadiazol-5-ylmethoxy)-1H,2H,3H,4H,6H,7H,11bH-pyrido[2,1-a]isoquinolin-2-ol], the Ki at human VMAT2 (setting [2]) was more than 10 µM.
On to `COc1cc2c(cc1OCC(=O)N(C)C)CCN1C[C@@H](CC(C)(C)C)[C@H](O)C[C@H]21` [Compound 4-33, 2-{[(2R,3R,11bR)-3-(2,2-dimethylpropyl)-2-hydroxy-10-methoxy-1H,2H,3H,4H,6H,7H,11bH-pyrido[2,1-a]isoquinolin-9-yl]oxy}-N,N-dimethylacetamide], for which the Ki on human VMAT2 (setting [2]) is more than 10 µM.
For the molecule `COc1cc2c(cc1OCCn1ccnc1)CCN1C[C@@H](CC(C)(C)C)[C@H](O)C[C@H]21` [Compound 4-34, (2R,3R,11bR)-3-(2,2-dimethylpropyl)-9-[2-(1H-imidazol-1-yl)ethoxy]-10-methoxy-1H,2H,3H,4H,6H,7H,11bH-pyrido[2,1-a]isoquinolin-2-ol], at human VMAT2 (setting [2]), the Ki was more than 10 µM.
